Measured values: article PMC7083880 (Nature Communications, 2020)

Tests used:
CTU1 = biological target: T1, CTU1 (Homo sapiens, UniProt Q7Z7A3); assay: UGA readthrough luciferase assay with CTU1 overexpression; format: cell-based;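 for luciferase activity, average: DAP exposure for 24 h before luciferase measurement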;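 for luciferase activity, exp2: DAP exposure for 24 h before luciferase measurement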
T1 construct: host or cells: HeLa
T1 sequence (Q7Z7A3 1-348): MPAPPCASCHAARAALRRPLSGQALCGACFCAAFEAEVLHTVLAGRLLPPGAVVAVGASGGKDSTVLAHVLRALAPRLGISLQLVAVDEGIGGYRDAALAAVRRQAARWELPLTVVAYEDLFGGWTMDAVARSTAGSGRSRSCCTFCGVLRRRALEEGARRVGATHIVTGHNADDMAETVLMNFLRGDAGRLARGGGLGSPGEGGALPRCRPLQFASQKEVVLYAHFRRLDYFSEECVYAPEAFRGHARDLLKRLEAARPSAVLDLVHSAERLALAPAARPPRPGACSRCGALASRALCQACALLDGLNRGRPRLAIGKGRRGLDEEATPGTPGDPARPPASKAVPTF
Description: Firefly luciferase from HEK293FT cells transfected with the Fluc-int-UGA construct was immunoprecipitated and digested with trypsin. The MS/MS spectrum of the peptide containing the PTC position and the sequence determination are shown. The upper red and blue sequences indicate the amino acids validated, respectively, by detection of Nter and Cter peptide fragments (b and y ion series). Peptide fragments y6 and y7 clearly identify tryptophan (W) at the PTC position. The black peaks correspond to non-attributed mass-to-charge ratio (m/z) values. […] Readthrough efficiency was determined by measuring luciferase activity in HeLa cells co-transfected with the firefly luciferase construct described in Fig. 1b and with increasing amounts of an expression vector for either FTSJ1 or CTU1 (0.5, 1, or 2 µg). The empty expression vector (E.v.) was used as control. […] The experiment was performed twice and the results of both experiments (Exp1 and Exp2) are shown. c Western blot analysis of FTSJ1 and CTU1. d 2′-O-methylation analysis of tRNA^Trp, tRNA^SER, and tRNA^GLN by RiboMethSeq. […] A molecular weight marker is indicated to the left of each gel. p-values (p) were calculated using Student’s t-test. Source data are provided as a Source Data file.
Among the enzymes modifying tRNAs liable to recognize a stop codon by extended wobbling, human FTSJ1 (TRM7 in yeast) exclusively modifies tRNAs involved in UGA readthrough. In addition to other tRNA targets, FTSJ1 methylates the cytosine at position 34 of tRNA^Trp. Inhibition of this modification could increase the capacity of tRNA^Trp to misdecode and recognize the UGA stop codon. […] FTSJ1 and CTU1 overexpression were assessed by western-blot analysis (Fig. 5c).

[1] = test system: p53 readthrough protein in Calu-6 cells; assay: p53 function: luciferase under promoter with two p53-responsive elements, Calu-6; format: cell-based, human
Description: The three leftmost lanes show twofold serial dilutions of untreated HeLa cell extract. The molecular weight is indicated to the left of each gel. b Schematic representation of the construct used to measure the function of p53. The construct carries a cDNA encoding the firefly luciferase under a promoter having two p53-responsive elements (underlined). […] The level of p21 mRNA is related to the amount of functional p53 protein synthesized in the cell. The results presented in panels b and c are representative of at least two independent experiments., p-values (p) were calculated using Student’s t-test. Source data are provided as a Source Data file.
Although DAP clearly promoted the synthesis of full-length proteins from UGA-nonsense-mutation-containing mRNAs, it was necessary to ascertain that the readthrough protein was functional. […] The first involved measuring the transcriptional activity of the p53 readthrough protein in Calu-6 cells transfected with an expression vector carrying the cDNA encoding firefly luciferase under the control of a promoter with two p53-responsive elements (Fig. 2b)[33]. Upon DMSO treatment, only basal luciferase activity was detected, reflecting promoter leakage (Fig. 2c). […] The second assay used the p53 target gene p21 (ref. [44]).

## Nc1nc(N)c2[nH]cnc2n1 [DAP, 2,6-diaminopurine]
CTU1; 0.5µg CTU1, 0.39µM
  luciferase activity, average: 1294.38
  luciferase activity, exp1: 850.5
  luciferase activity, exp1*1,5: 1275.75
  luciferase activity, exp2: 1313
CTU1; 0.5µg CTU1, 0.78µM
  luciferase activity, average: 1925.25
  luciferase activity, exp1: 1235
  luciferase activity, exp1*1,5: 1852.5
  luciferase activity, exp2: 1998
CTU1; 0.5µg CTU1, 1.56µM
  luciferase activity, average: 3744.75
  luciferase activity, exp1: 2474
  luciferase activity, exp1*1,5: 3711
  luciferase activity, exp2: 3778.5
CTU1; 0.5µg CTU1, 6.25µM
  luciferase activity, average: 19050.9
  luciferase activity, exp1: 10689.5
  luciferase activity, exp1*1,5: 16034.2
  luciferase activity, exp2: 22067.5
CTU1; 0.5µg CTU1, 25µM
  luciferase activity, average: 76730.1
  luciferase activity, exp1: 40518.5
  luciferase activity, exp1*1,5: 60777.8
  luciferase activity, exp2: 92682.5
CTU1; 0.5µg CTU1, 100µM
  luciferase activity, average: 153887
  luciferase activity, exp1: 108746
  luciferase activity, exp1*1,5: 163120
  luciferase activity, exp2: 144654
CTU1; 0.5µg CTU1, 300µM
  luciferase activity, average: 196559
  luciferase activity, exp1: 113240
  luciferase activity, exp1*1,5: 169861
  luciferase activity, exp2: 223256
CTU1; 0.5µg CTU1, 600µM
  luciferase activity, average: 155354
  luciferase activity, exp1: 75601
  luciferase activity, exp1*1,5: 113402
  luciferase activity, exp2: 197306
CTU1; 1µg CTU1, 0.39µM
  luciferase activity, average: 1209.75
  luciferase activity, exp1: 816
  luciferase activity, exp1*1,5: 1224
  luciferase activity, exp2: 1195.5
CTU1; 1µg CTU1, 0.78µM
  luciferase activity, average: 1705.88
  luciferase activity, exp1: 1099.5
  luciferase activity, exp1*1,5: 1649.25
  luciferase activity, exp2: 1762.5
CTU1; 1µg CTU1, 1.56µM
  luciferase activity, average: 3430.38
  luciferase activity, exp1: 2700.5
  luciferase activity, exp1*1,5: 4050.75
  luciferase activity, exp2: 2810
CTU1; 1µg CTU1, 6.25µM
  luciferase activity, average: 22021
  luciferase activity, exp1: 11418
  luciferase activity, exp1*1,5: 17127
  luciferase activity, exp2: 26915
CTU1; 1µg CTU1, 25µM
  luciferase activity, average: 66719.5
  luciferase activity, exp1: 39882
  luciferase activity, exp1*1,5: 59823
  luciferase activity, exp2: 73616
CTU1; 1µg CTU1, 100µM
  luciferase activity, average: 131546
  luciferase activity, exp1: 100876
  luciferase activity, exp1*1,5: 151313
  luciferase activity, exp2: 111779
CTU1; 1µg CTU1, 300µM
  luciferase activity, average: 187075
  luciferase activity, exp1: 116534
  luciferase activity, exp1*1,5: 174802
  luciferase activity, exp2: 199348
CTU1; 1µg CTU1, 600µM
  luciferase activity, average: 146715
  luciferase activity, exp1: 78978
  luciferase activity, exp1*1,5: 118467
  luciferase activity, exp2: 174963
CTU1; 2µg CTU1, 0.39µM
  luciferase activity, average: 1088.5
  luciferase activity, exp1: 733
  luciferase activity, exp1*1,5: 1099.5
  luciferase activity, exp2: 1077.5
CTU1; 2µg CTU1, 0.78µM
  luciferase activity, average: 1344.88
  luciferase activity, exp1: 885.5
  luciferase activity, exp1*1,5: 1328.25
  luciferase activity, exp2: 1361.5
CTU1; 2µg CTU1, 1.56µM
  luciferase activity, average: 2818.25
  luciferase activity, exp1: 1937
  luciferase activity, exp1*1,5: 2905.5
  luciferase activity, exp2: 2731
CTU1; 2µg CTU1, 6.25µM
  luciferase activity, average: 9528.62
  luciferase activity, exp1: 6020.5
  luciferase activity, exp1*1,5: 9030.75
  luciferase activity, exp2: 10026.5
CTU1; 2µg CTU1, 25µM
  luciferase activity, average: 42062.1
  luciferase activity, exp1: 22665.5
  luciferase activity, exp1*1,5: 33998.2
  luciferase activity, exp2: 50126
CTU1; 2µg CTU1, 100µM
  luciferase activity, average: 109330
  luciferase activity, exp1: 66277.5
  luciferase activity, exp1*1,5: 99416.2
  luciferase activity, exp2: 119244
CTU1; 2µg CTU1, 300µM
  luciferase activity, average: 143657
  luciferase activity, exp1: 87747.5
  luciferase activity, exp1*1,5: 131621
  luciferase activity, exp2: 155692
CTU1; 2µg CTU1, 600µM
  luciferase activity, average: 121237
  luciferase activity, exp1: 66046
  luciferase activity, exp1*1,5: 99069
  luciferase activity, exp2: 143406
[1]
  Luciferase activity under p53-responsive promoter, in words: significantly increased
[1]; 6.25µM, average
  Luciferase activity, p53-responsive promoter construct (DMSO = 1): 1.454
[1]; 6.25µM, experiment 1
  Luciferase activity, p53-responsive promoter construct (DMSO = 1): 1.606
[1]; 6.25µM, experiment 2
  Luciferase activity, p53-responsive promoter construct (DMSO = 1): 1.415
[1]; 6.25µM, experiment 3
  Luciferase activity, p53-responsive promoter construct (DMSO = 1): 1.341
[1]; 25µM, average
  Luciferase activity, p53-responsive promoter construct (DMSO = 1): 2.545
[1]; 25µM, experiment 1
  Luciferase activity, p53-responsive promoter construct (DMSO = 1): 2.235
[1]; 25µM, experiment 2
  Luciferase activity, p53-responsive promoter construct (DMSO = 1): 2.893
[1]; 25µM, experiment 3
  Luciferase activity, p53-responsive promoter construct (DMSO = 1): 2.507

## CN[C@@H]1[C@@H](O)[C@@H](O[C@@H]2[C@@H](O)[C@H](O[C@H]3O[C@H]([C@@H](C)O)[C@@H](O)[C@H](O)[C@H]3N)[C@@H](N)C[C@H]2N)OC[C@]1(C)O [G418, reference compound]
CTU1; 0.5µg CTU1, 25µM
  luciferase activity, average: 3303.88
  luciferase activity, exp1: 2866.5
  luciferase activity, exp1*1,5: 4299.75
  luciferase activity, exp2: 2308
CTU1; 0.5µg CTU1, 600µM
  luciferase activity, average: 6542.12
  luciferase activity, exp1: 5872.5
  luciferase activity, exp1*1,5: 8808.75
  luciferase activity, exp2: 4275.5
CTU1; 1µg CTU1, 25µM
  luciferase activity, average: 3585
  luciferase activity, exp1: 3346
  luciferase activity, exp1*1,5: 5019
  luciferase activity, exp2: 2151
CTU1; 1µg CTU1, 600µM
  luciferase activity, average: 5848.5
  luciferase activity, exp1: 6204
  luciferase activity, exp1*1,5: 9306
  luciferase activity, exp2: 2391
CTU1; 2µg CTU1, 25µM
  luciferase activity, average: 2193.38
  luciferase activity, exp1: 1845.5
  luciferase activity, exp1*1,5: 2768.25
  luciferase activity, exp2: 1618.5
CTU1; 2µg CTU1, 600µM
  luciferase activity, average: 2999.5
  luciferase activity, exp1: 2670
  luciferase activity, exp1*1,5: 4005
  luciferase activity, exp2: 1994
[1]
  Luciferase activity under p53-responsive promoter, in words: remained at its background level
[1]; 25µM, average
  Luciferase activity, p53-responsive promoter construct (DMSO = 1): 1.04
[1]; 25µM, experiment 1
  Luciferase activity, p53-responsive promoter construct (DMSO = 1): 1.048
[1]; 25µM, experiment 2
  Luciferase activity, p53-responsive promoter construct (DMSO = 1): 0.7766
[1]; 25µM, experiment 3
  Luciferase activity, p53-responsive promoter construct (DMSO = 1): 1.295
[1]; 600µM, average
  Luciferase activity, p53-responsive promoter construct (DMSO = 1): 1.017
[1]; 600µM, experiment 1
  Luciferase activity, p53-responsive promoter construct (DMSO = 1): 1.299
[1]; 600µM, experiment 2
  Luciferase activity, p53-responsive promoter construct (DMSO = 1): 0.6289
[1]; 600µM, experiment 3
  Luciferase activity, p53-responsive promoter construct (DMSO = 1): 1.121
